{
  "source": "paper PMC11982498",
  "about": "(Redox Biology, 2025)",
  "key": {"[1]": {"test_system": "BCL-2 (BCL-2 IM) (DNA, i motif) CAGCCCCGCTCCCGCCCCCTTCCTCCCGCGCCCGCCCCT", "assay": "CD melting, 287 nm", "settings": "K+ 100 mM KCl plus potassium phosphate; BPES buffer, pH 5.5; 20 μM B14 (DNA 1, 2 or 5 μM, prints disagree)"}, "[2]": {"test_system": "BAX, Cleaved Caspase 3, Cleaved Caspase 9, Cyto-C, Apaf-1 in SH-SY5Y cells", "assay": "Western blot of apoptosis related proteins in Aβ1-42 induced cell model", "format": "cell-based", "settings": "25 μM Aβ1-42 induced model", "experimental": "(§1) Protein samples (25–40 μg) were separated using 10 % SDS-PAGE and subsequently transferred onto PVDF membranes (0.22 μm, Servicebio, Guangzhou, China) via electro transfer. Following blocking with TBST solution (Servicebio, Guangzhou, China) containing 5 % BSA (Solarbio, Beijing, China) for approximately 60 min at room temperature, the membrane was exposed to various primary antibodies overnight at 4 °C on a rotating shaker. Then, the membranes were incubated with HRP-conjugated secondary antibody (Affinity, Changzhou, China) for 2 h. Protein bands were then detected using an ECL kit. The signal intensity of each target protein was quantified using Image J 1.8.0 software (Bio-Rad Laboratories, California, USA).\n(§2) Primary antibodies for Western blot analysis include BCL-2 (affinity biosciences OH, Cat# AF6139, USA), BAX (affinity biosciences OH, Cat# AF0120, USA), VEGF (affinity biosciences OH, Cat# AF5131, USA), C-MYC (affinity biosciences OH, Cat# AF0358, USA), Caspase9 (affinity biosciences OH, Cat# AF6348, USA), cleaved-Caspase9 (affinity biosciences OH, Cat# AF5240, USA), Caspase3 (affinity biosciences OH, Cat# AF6311, USA), cleaved-Caspase3 (affinity biosciences OH, Cat# AF7022, USA), and Cyto-C (affinity biosciences OH, Cat# AF6139, USA)."}, "APP/PS1 transgenic mice [3]": {"test_system": "APP/PS1 transgenic mice", "assay": "Elevated plus maze (EPM)", "format": "in vivo", "settings": "B14 10, 20, 40 mg/kg i.p. every other day", "text": "(§3) Five months old male APP/PS1 mice, weighing 25–33 g, were purchased from Guangdong Medical Laboratory Animal Center and housed in the Laboratory Animal Center of Sun Yat-sen University (Guangzhou, China) for experimentation. All procedures were approved by the Animal Care and Use Committee of Sun Yat-sen University and complied with legal requirements and national guidelines for the care and maintenance of laboratory animals (Approval No. SYSU-IACUC-2024-002032). The mice were housed in a specific pathogen-free environment with a controlled temperature of 22 ± 1 °C and a 12-h dark/light cycle. The mice were fed with a standard diet, and 30 mice were randomly divided into 6 groups (N = 5). Compound B14 was dissolved in saline and administered at doses of 10, 20, or 40 mg/kg. APP/PS1 male mice were grown until 6 months of age, and then injected intraperitoneally with compound B14 every other day for 60 days. Behavioral experiments were then conducted, and tissue specimens were collected for biochemical analysis.\n(§4) The spatial memory and learning abilities of the mice were assessed using Morris water maze (MWM), novel object recognition (NOR) and nesting experiments (NBT). The anxiety and depressive behaviors were evaluated through the open field test (OFT) and elevated plus maze (EPM). Detailed experimental procedures are provided in the supplementary information. […]"}, "APP/PS1 transgenic mice [4]": {"test_system": "APP/PS1 transgenic mice", "assay": "Nissl and H&E staining of hippocampus", "format": "in vivo", "settings": "vs model group", "text": "as §3\nThe mice were sacrificed, with their brains and organs isolated and embedded in paraffin. The brains and organs were then sectioned into 6 μm thin slices. These slices were subjected to H&E or Nissl staining (Servicebio, Guangzhou, China). The stained sections were subsequently imaged and analyzed by using microscopy."}, "Aβ1-42": {"target": "T1, Aβ1-42 (Homo sapiens, UniProt P05067)", "T1 construct": "Aβ1-42 was purchased from Gill Biochemicals Ltd (Shanghai, China); purchased Gill Biochemicals Ltd (Shanghai, China)", "T1 sequence (P05067 672-713 limits assumed)": "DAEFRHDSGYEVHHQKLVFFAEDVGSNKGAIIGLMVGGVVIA", "assay": "Circular dichroism of Aβ1-42 secondary structure", "format": "biochemical", "settings": "20 μM compound, 72 h", "experimental": "(§5) The circular dichroism (CD) experiment was performed to investigate the effect of B14 (20 μM) or Curcumin (20 μM) on the change of Aβ1-42 secondary structure. The Aβ1-42 solutions (100 μM) were co-incubated with B14 (20 μM) or Curcumin (20 μM) at 37 °C for 72h. Ellipticity changes of Aβ1-42 were monitored employing a Chirascan CD spectropolarimeter (Chirascan, England).\nas §5, with “Circular dichroism” for “The circular dichroism”, “μM) and” for “μM) or”, “spectropolarimeter (Applied Photophysics, UK).” for “spectropolarimeter (Chirascan, England).”"}, "[5]": {"target": "BCL-2 G-quadruplex (BCL-2 G4)", "assay": "MST binding to BCL-2 G-quadruplex", "settings": "Tris-HCl buffer pH 7.4", "experimental": "After incubation of DNA with compound for 60 min, the sample was loaded in MST-grade glass capillaries. The intensity of the LED power was set at 20 %, and the MST laser was set at 40 %. The analyses were performed using a Monolith NT.115, and the fitting curve was obtained by using NT Analysis 1.5.41 via Hill fitting. The KD value represents the numeric equivalent of the concentration of B14 when the response is half of the plateau response (Rmax) of the fitting curve."}, "[6]": {"test_system": "BCL-2, C-MYC and VEGF protein expressions in SH-SY5Y cells", "assay": "Western blot in SH-SY5Y cells", "format": "cell-based", "settings": "increasing concentration of B14, 24 h", "experimental": "as §1, §2"}, "[7]": {"test_system": "bio-(G2C4)6 (DNA, i motif) GGCCCCGGCCCCGGCCCCGGCCCCGGCCCCGGCCCC", "assay": "SPR", "settings": "K+ 100 mM; 20 mM MES, pH 5.5, 25 °C"}, "APP/PS1 transgenic mice [8]": {"test_system": "APP/PS1 transgenic mice", "assay": "Open field test (OFT)", "format": "in vivo", "settings": "B14 10, 20, 40 mg/kg i.p. every other day", "text": "as §3, §4"}},
  "data": [
    {"smiles": "O=C(CCN1CCOCC1)Nc1ccc2c(c1)c(=O)c1cc(NC(=O)CCN3CCOCC3)ccc1n2-c1ccc2occc2c1", "note": "[Compound B14]", "values": [
      {"measurement": "ΔTm", "setting": "[1]", "value": 11.26, "unit": "°C"},
      {"measurement": "levels of pro-apoptotic proteins (Western blot)", "setting": "[2]", "value": "decreased levels of pro-apoptotic proteins"},
      {"measurement": "number of entries into the open arm and retention time (EPM)", "setting": "APP/PS1 transgenic mice [3]", "value": "significantly increased"},
      {"measurement": "hippocampal neuron damage (HE staining)", "setting": "APP/PS1 transgenic mice [4]", "value": "could reverse the damage of hippocampal neurons in mice"},
      {"measurement": "number of Nissl bodies in CA1-CA4 and DG regions", "setting": "APP/PS1 transgenic mice [4]", "value": "restored"},
      {"measurement": "CD signal intensity of Aβ1-42", "setting": "Aβ1-42", "value": "much decreased"},
      {"measurement": "Kd", "setting": "[5]", "value": 59.8, "unit": "µM"},
      {"measurement": "BCL-2 translation (Western blot)", "setting": "[6]", "value": "up-regulate BCL-2 translation in SH-SY5Y cells in a dose-dependent manner"},
      {"measurement": "C-MYC and VEGF expression (Western blot)", "setting": "[6]", "value": "without significant effect on C-MYC and VEGF expression"},
      {"measurement": "KD", "setting": "[7]", "value": 33.30, "unit": "µM"},
      {"measurement": "range and duration of activity (OFT)", "setting": "APP/PS1 transgenic mice [8]", "value": "significant improvement in the range and duration of activity"}
    ]}
  ]
}
